Assay: Degree of solubility of polymerization initiators (3 mass % aqueous solution)
Type: physicochemical
Parameters: key: A: The polymerization initiator was fully dissolved at room temperature.; B: The polymerization initiator was slightly precipitated at room temperature, and was fully dissolved when being heated at 60° C.; The polymerization initiator was not fully dissolved even when being heated at 60° C
Conditions: 3 mass % aqueous solution of the polymerization initiator; room temperature / heated at 60° C.
Procedure: 3 mass % aqueous solutions were respectively prepared using Polymerization Initiators I-1 to I-5, I-8, and R-1 to R-4, and the degrees of solubility of the polymerization initiators were evaluated according to the following evaluation standards.
A: The polymerization initiator was fully dissolved at room temperature.
B: The polymerization initiator was slightly precipitated at room temperature, and was fully dissolved when being heated at 60° C.
C: The polymerization initiator was not fully dissolved even when being heated at 60° C.

| Structure (SMILES) | Degree of solubility |
| --- | --- |
| Cc1c(OCC(O)C[N+](C)(C)C)cc2c(=O)c3ccccc3sc2c1C (centres unmarked) [Compound R-2] | A |
| COC(OC)(C(=O)c1ccc(OCC(=O)[O-])cc1)c1ccc(OCC(=O)[O-])cc1.[Na+].[Na+] [Compound R-3] | C |
| C[N+](C)(CCCS(=O)(=O)[O-])CCOc1ccc2c(=O)c3ccccc3sc2c1 [Compound I-1] | A |
| CCC(Cc1ccc(S(=O)(=O)O)cc1)(C(=O)c1ccc(N2CCOCC2)cc1)N(C)C (centres unmarked) [Compound R-4] | A |
| CC(C)(O)C(=O)c1ccc(OCCO)cc1 [Compound R-1] | C |

Source: patent publication US9458337B2, “Curable resin composition, water-soluble ink composition, ink set, and image-forming method” (FUJIFILM CORPORATION, priority 2012, dated 2016)
